Measured values taken from ChEMBL document CHEMBL5724914, “Linking interpersonal differences in gut microbiota composition and drug biotransformation activity” (2024).

Conditions: human gut metagenome, 24 h, 2 µM
Further: call rule not given here.

Row | SMILES | Bacterial Biotransformation
1 | CN(C)CCOC(C)(c1ccccc1)c1ccccn1.O=C(O)CCC(=O)O (stereo not given) [DOXYLAMINE SUCCINATE] | Compound NOT metabolized
2 | Br.CN1CCC[C@@H]1Cc1c[nH]c2ccc(CCS(=O)(=O)c3ccccc3)cc12 [ELETRIPTAN HYDROBROMIDE] | Compound NOT metabolized

Assay: (§1) The drug is tested on Z-029 corresponding to rat gut metagenome with ENA study accession number: PRJEB37062 and ENA sample accession number: ERS12561828 for biotransformation under anaerobic condition. The drug concentrations were measured over 9 timepoints collected between 0 and 24 hours of incubation by liquid-chromatography-coupled mass spectrometry (LC–MS)
Conditions: 2 µM

Row | SMILES | Bacterial Biotransformation
3 | CN(C)CCOC(C)(c1ccccc1)c1ccccn1.O=C(O)CCC(=O)O (stereo not given) [DOXYLAMINE SUCCINATE] | Compound NOT metabolized
4 | Br.CN1CCC[C@@H]1Cc1c[nH]c2ccc(CCS(=O)(=O)c3ccccc3)cc12 [ELETRIPTAN HYDROBROMIDE] | Compound NOT metabolized

Assay: as §1, with “on Z-002” for “on Z-029”, “to rabbit” for “to rat”, “number: ERS12561802” for “number: ERS12561828”
Conditions: 2 µM

Row | SMILES | Bacterial Biotransformation
5 | CN(C)CCOC(C)(c1ccccc1)c1ccccn1.O=C(O)CCC(=O)O (stereo not given) [DOXYLAMINE SUCCINATE] | Compound NOT metabolized
6 | Br.CN1CCC[C@@H]1Cc1c[nH]c2ccc(CCS(=O)(=O)c3ccccc3)cc12 [ELETRIPTAN HYDROBROMIDE] | Compound metabolized

Conditions: human gut metagenome, 24 h, 2 µM
Remark: another data set of the same source

Row | SMILES | Bacterial Biotransformation
7 | CN(C)CCOC(C)(c1ccccc1)c1ccccn1.O=C(O)CCC(=O)O (stereo not given) [DOXYLAMINE SUCCINATE] | Compound NOT metabolized
8 | Br.CN1CCC[C@@H]1Cc1c[nH]c2ccc(CCS(=O)(=O)c3ccccc3)cc12 [ELETRIPTAN HYDROBROMIDE] | Compound metabolized

Conditions: human gut metagenome, 24 h, 2 µM
Remark: another data set of the same source

Row | SMILES | Bacterial Biotransformation
9 | CN(C)CCOC(C)(c1ccccc1)c1ccccn1.O=C(O)CCC(=O)O (stereo not given) [DOXYLAMINE SUCCINATE] | Compound NOT metabolized
10 | Br.CN1CCC[C@@H]1Cc1c[nH]c2ccc(CCS(=O)(=O)c3ccccc3)cc12 [ELETRIPTAN HYDROBROMIDE] | Compound NOT metabolized

Assay: as §1, with “on WLS-098” for “on Z-029”, “to human” for “to rat”, “number: ERS12561754” for “number: ERS12561828”
Conditions: 2 µM

Row | SMILES | Bacterial Biotransformation
11 | CN(C)CCOC(C)(c1ccccc1)c1ccccn1.O=C(O)CCC(=O)O (stereo not given) [DOXYLAMINE SUCCINATE] | Compound NOT metabolized
12 | Br.CN1CCC[C@@H]1Cc1c[nH]c2ccc(CCS(=O)(=O)c3ccccc3)cc12 [ELETRIPTAN HYDROBROMIDE] | Compound metabolized

Assay: as §1, with “on Z-016” for “on Z-029”, “to mouse” for “to rat”, “number: ERS12561815” for “number: ERS12561828”
Conditions: 2 µM

Row | SMILES | Bacterial Biotransformation
13 | CN(C)CCOC(C)(c1ccccc1)c1ccccn1.O=C(O)CCC(=O)O (stereo not given) [DOXYLAMINE SUCCINATE] | Compound NOT metabolized
14 | Br.CN1CCC[C@@H]1Cc1c[nH]c2ccc(CCS(=O)(=O)c3ccccc3)cc12 [ELETRIPTAN HYDROBROMIDE] | Compound NOT metabolized

Assay: as §1, with “Z-027” for “Z-029”, “to” for “to rat gut”, “ERS12561826” for “ERS12561828”
Conditions: 2 µM

Row | SMILES | Bacterial Biotransformation
15 | CN(C)CCOC(C)(c1ccccc1)c1ccccn1.O=C(O)CCC(=O)O (stereo not given) [DOXYLAMINE SUCCINATE] | Compound NOT metabolized
16 | Br.CN1CCC[C@@H]1Cc1c[nH]c2ccc(CCS(=O)(=O)c3ccccc3)cc12 [ELETRIPTAN HYDROBROMIDE] | Compound NOT metabolized

Conditions: human gut metagenome, 24 h, 2 µM
Remark: another data set of the same source

Row | SMILES | Bacterial Biotransformation
17 | CN(C)CCOC(C)(c1ccccc1)c1ccccn1.O=C(O)CCC(=O)O (stereo not given) [DOXYLAMINE SUCCINATE] | Compound NOT metabolized
18 | Br.CN1CCC[C@@H]1Cc1c[nH]c2ccc(CCS(=O)(=O)c3ccccc3)cc12 [ELETRIPTAN HYDROBROMIDE] | Compound NOT metabolized

Conditions: human gut metagenome, 24 h, 2 µM
Remark: another data set of the same source

Row | SMILES | Bacterial Biotransformation
19 | CN(C)CCOC(C)(c1ccccc1)c1ccccn1.O=C(O)CCC(=O)O (stereo not given) [DOXYLAMINE SUCCINATE] | Compound NOT metabolized
20 | Br.CN1CCC[C@@H]1Cc1c[nH]c2ccc(CCS(=O)(=O)c3ccccc3)cc12 [ELETRIPTAN HYDROBROMIDE] | Compound metabolized

Assay: as §1, with “on WLS-240” for “on Z-029”, “to human” for “to rat”, “number: ERS12561773” for “number: ERS12561828”
Conditions: 2 µM

Row | SMILES | Bacterial Biotransformation
21 | CN(C)CCOC(C)(c1ccccc1)c1ccccn1.O=C(O)CCC(=O)O (stereo not given) [DOXYLAMINE SUCCINATE] | Compound NOT metabolized
22 | Br.CN1CCC[C@@H]1Cc1c[nH]c2ccc(CCS(=O)(=O)c3ccccc3)cc12 [ELETRIPTAN HYDROBROMIDE] | Compound metabolized

Assay: as §1, with “on Z-024” for “on Z-029”, “to pig” for “to rat”, “number: ERS12561823” for “number: ERS12561828”
Conditions: 2 µM

Row | SMILES | Bacterial Biotransformation
23 | CN(C)CCOC(C)(c1ccccc1)c1ccccn1.O=C(O)CCC(=O)O (stereo not given) [DOXYLAMINE SUCCINATE] | Compound NOT metabolized
24 | Br.CN1CCC[C@@H]1Cc1c[nH]c2ccc(CCS(=O)(=O)c3ccccc3)cc12 [ELETRIPTAN HYDROBROMIDE] | Compound NOT metabolized

Conditions: human gut metagenome, 24 h, 2 µM
Remark: another data set of the same source

Row | SMILES | Bacterial Biotransformation
25 | CN(C)CCOC(C)(c1ccccc1)c1ccccn1.O=C(O)CCC(=O)O (stereo not given) [DOXYLAMINE SUCCINATE] | Compound NOT metabolized
26 | Br.CN1CCC[C@@H]1Cc1c[nH]c2ccc(CCS(=O)(=O)c3ccccc3)cc12 [ELETRIPTAN HYDROBROMIDE] | Compound NOT metabolized

Assay: as §1, with “on WLS-069” for “on Z-029”, “to human” for “to rat”, “number: ERS12561748” for “number: ERS12561828”
Conditions: 2 µM

Row | SMILES | Bacterial Biotransformation
27 | CN(C)CCOC(C)(c1ccccc1)c1ccccn1.O=C(O)CCC(=O)O (stereo not given) [DOXYLAMINE SUCCINATE] | Compound NOT metabolized
28 | Br.CN1CCC[C@@H]1Cc1c[nH]c2ccc(CCS(=O)(=O)c3ccccc3)cc12 [ELETRIPTAN HYDROBROMIDE] | Compound metabolized

Conditions: human gut metagenome, 24 h, 2 µM
Remark: another data set of the same source

Row | SMILES | Bacterial Biotransformation
29 | CN(C)CCOC(C)(c1ccccc1)c1ccccn1.O=C(O)CCC(=O)O (stereo not given) [DOXYLAMINE SUCCINATE] | Compound NOT metabolized
30 | Br.CN1CCC[C@@H]1Cc1c[nH]c2ccc(CCS(=O)(=O)c3ccccc3)cc12 [ELETRIPTAN HYDROBROMIDE] | Compound metabolized

Assay: as §1, with “Z-012” for “Z-029”, “to” for “to rat gut”, “ERS12561812” for “ERS12561828”
Conditions: 2 µM

Row | SMILES | Bacterial Biotransformation
31 | CN(C)CCOC(C)(c1ccccc1)c1ccccn1.O=C(O)CCC(=O)O (stereo not given) [DOXYLAMINE SUCCINATE] | Compound NOT metabolized
32 | Br.CN1CCC[C@@H]1Cc1c[nH]c2ccc(CCS(=O)(=O)c3ccccc3)cc12 [ELETRIPTAN HYDROBROMIDE] | Compound NOT metabolized

Conditions: human gut metagenome, 24 h, 2 µM
Remark: another data set of the same source

Row | SMILES | Bacterial Biotransformation
33 | CN(C)CCOC(C)(c1ccccc1)c1ccccn1.O=C(O)CCC(=O)O (stereo not given) [DOXYLAMINE SUCCINATE] | Compound NOT metabolized
34 | Br.CN1CCC[C@@H]1Cc1c[nH]c2ccc(CCS(=O)(=O)c3ccccc3)cc12 [ELETRIPTAN HYDROBROMIDE] | Compound NOT metabolized

Assay: as §1, with “on Z-011” for “on Z-029”, “to mouse” for “to rat”, “number: ERS12561811” for “number: ERS12561828”
Conditions: 2 µM

Row | SMILES | Bacterial Biotransformation
35 | CN(C)CCOC(C)(c1ccccc1)c1ccccn1.O=C(O)CCC(=O)O (stereo not given) [DOXYLAMINE SUCCINATE] | Compound NOT metabolized
36 | Br.CN1CCC[C@@H]1Cc1c[nH]c2ccc(CCS(=O)(=O)c3ccccc3)cc12 [ELETRIPTAN HYDROBROMIDE] | Compound NOT metabolized

Assay: as §1, with “on WLS-038” for “on Z-029”, “to human” for “to rat”, “number: ERS12561745” for “number: ERS12561828”
Conditions: 2 µM

Row | SMILES | Bacterial Biotransformation
37 | CN(C)CCOC(C)(c1ccccc1)c1ccccn1.O=C(O)CCC(=O)O (stereo not given) [DOXYLAMINE SUCCINATE] | Compound NOT metabolized
38 | Br.CN1CCC[C@@H]1Cc1c[nH]c2ccc(CCS(=O)(=O)c3ccccc3)cc12 [ELETRIPTAN HYDROBROMIDE] | Compound NOT metabolized

Conditions: human gut metagenome, 24 h, 2 µM
Remark: another data set of the same source

Row | SMILES | Bacterial Biotransformation
39 | CN(C)CCOC(C)(c1ccccc1)c1ccccn1.O=C(O)CCC(=O)O (stereo not given) [DOXYLAMINE SUCCINATE] | Compound NOT metabolized
40 | Br.CN1CCC[C@@H]1Cc1c[nH]c2ccc(CCS(=O)(=O)c3ccccc3)cc12 [ELETRIPTAN HYDROBROMIDE] | Compound NOT metabolized
